# Experimental data from ChEMBL document CHEMBL1201862, “PubChem BioAssay data set” (2004).
# The source made the active and inactive calls.
# Assays:
# Cytochrome P450 2D6 = Cytochrome P450 2D6 (Homo sapiens, UniProt P10635);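 further: CYP2D6 member of a cytochrome P450 panel assay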
# Cytochrome P450 3A4 = Cytochrome P450 3A4 (Homo sapiens, UniProt P08684);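 further: CYP3A4 tested as one member of a cytochrome P450 panel screen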
# [1] = biological target: Ras and Rab interactor 1/Tyrosine-protein kinase ABL1 (Homo sapiens, UniProt P00519+Q13671); format: functional;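 further: biochemical TR-FRET dose-response test measuring inhibition of binding between Rin1 and Abl proteins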
# Sequence of Ras and Rab interactor 1/Tyrosine-protein kinase ABL1 (P00519 whole entry): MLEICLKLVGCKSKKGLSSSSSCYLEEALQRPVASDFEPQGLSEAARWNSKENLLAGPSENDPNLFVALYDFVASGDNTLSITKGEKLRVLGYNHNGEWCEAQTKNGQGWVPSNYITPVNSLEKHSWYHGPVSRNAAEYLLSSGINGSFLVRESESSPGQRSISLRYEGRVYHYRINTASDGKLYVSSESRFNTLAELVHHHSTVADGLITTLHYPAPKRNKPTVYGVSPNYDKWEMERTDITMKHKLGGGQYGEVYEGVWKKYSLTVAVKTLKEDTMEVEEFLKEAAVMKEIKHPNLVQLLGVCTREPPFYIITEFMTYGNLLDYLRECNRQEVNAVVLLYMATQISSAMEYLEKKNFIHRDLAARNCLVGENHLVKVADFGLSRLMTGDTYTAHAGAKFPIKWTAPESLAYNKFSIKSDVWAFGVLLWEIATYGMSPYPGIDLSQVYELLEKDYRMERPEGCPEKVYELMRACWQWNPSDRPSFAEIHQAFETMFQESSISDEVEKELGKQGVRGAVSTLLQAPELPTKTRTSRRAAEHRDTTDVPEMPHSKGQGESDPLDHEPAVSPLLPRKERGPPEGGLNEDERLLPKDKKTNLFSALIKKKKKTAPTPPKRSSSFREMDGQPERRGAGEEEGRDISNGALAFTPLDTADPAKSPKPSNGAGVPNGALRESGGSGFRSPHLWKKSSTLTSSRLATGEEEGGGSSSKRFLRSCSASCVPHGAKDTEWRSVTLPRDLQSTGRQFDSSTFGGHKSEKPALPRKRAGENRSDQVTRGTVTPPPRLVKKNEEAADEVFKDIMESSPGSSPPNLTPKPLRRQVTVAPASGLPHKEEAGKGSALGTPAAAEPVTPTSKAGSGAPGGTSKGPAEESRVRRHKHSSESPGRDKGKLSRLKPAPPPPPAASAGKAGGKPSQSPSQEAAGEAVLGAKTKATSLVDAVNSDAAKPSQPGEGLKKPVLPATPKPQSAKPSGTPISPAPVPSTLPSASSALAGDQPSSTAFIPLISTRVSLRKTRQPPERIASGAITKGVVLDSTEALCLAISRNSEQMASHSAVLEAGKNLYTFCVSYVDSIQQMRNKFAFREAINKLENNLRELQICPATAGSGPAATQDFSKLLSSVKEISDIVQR
# Sequence of Ras and Rab interactor 1/Tyrosine-protein kinase ABL1 (Q13671 whole entry): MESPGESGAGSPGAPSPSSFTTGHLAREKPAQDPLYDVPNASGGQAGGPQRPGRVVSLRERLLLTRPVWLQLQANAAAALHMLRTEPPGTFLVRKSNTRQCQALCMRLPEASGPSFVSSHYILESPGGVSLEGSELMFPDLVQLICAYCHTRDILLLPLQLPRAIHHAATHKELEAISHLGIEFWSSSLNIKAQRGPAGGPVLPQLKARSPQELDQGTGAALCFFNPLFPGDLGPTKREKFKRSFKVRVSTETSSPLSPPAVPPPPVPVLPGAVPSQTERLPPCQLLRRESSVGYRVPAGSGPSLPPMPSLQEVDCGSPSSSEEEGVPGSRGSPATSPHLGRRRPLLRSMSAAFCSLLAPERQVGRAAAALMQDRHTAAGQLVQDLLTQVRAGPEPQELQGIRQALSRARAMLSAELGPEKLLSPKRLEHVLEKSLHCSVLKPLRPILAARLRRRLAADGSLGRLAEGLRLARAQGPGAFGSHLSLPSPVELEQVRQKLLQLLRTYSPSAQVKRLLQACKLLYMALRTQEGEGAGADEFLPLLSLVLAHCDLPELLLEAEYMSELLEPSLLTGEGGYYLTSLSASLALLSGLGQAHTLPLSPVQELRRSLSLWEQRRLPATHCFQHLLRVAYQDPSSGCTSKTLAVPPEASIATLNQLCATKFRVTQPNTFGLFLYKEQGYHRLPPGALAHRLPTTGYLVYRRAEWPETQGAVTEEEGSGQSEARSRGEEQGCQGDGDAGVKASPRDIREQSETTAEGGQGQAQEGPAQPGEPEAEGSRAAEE
# P388/ADR = experiment: cells; format: functional; conditions: Mus musculus
# SN12K1 = experiment: cells; format: functional; conditions: Homo sapiens
# P388 = experiment: cells; format: functional; conditions: Mus musculus
# [2] = biological target: SWI/SNF-related matrix-associated actin-dependent regulator of chromatin subfamily A member 2 (Homo sapiens, UniProt P51531); experiment: Luminescence-based cell-based high throughput dose response assay to identify activators of the function of SWI/SNF related, matrix associated, actin dependent regulator of chromatin, subfamily a, member 2 (SMARCA2, BRM).; format: functional
# Sequence of SWI/SNF-related matrix-associated actin-dependent regulator of chromatin subfamily A member 2 (P51531 whole entry): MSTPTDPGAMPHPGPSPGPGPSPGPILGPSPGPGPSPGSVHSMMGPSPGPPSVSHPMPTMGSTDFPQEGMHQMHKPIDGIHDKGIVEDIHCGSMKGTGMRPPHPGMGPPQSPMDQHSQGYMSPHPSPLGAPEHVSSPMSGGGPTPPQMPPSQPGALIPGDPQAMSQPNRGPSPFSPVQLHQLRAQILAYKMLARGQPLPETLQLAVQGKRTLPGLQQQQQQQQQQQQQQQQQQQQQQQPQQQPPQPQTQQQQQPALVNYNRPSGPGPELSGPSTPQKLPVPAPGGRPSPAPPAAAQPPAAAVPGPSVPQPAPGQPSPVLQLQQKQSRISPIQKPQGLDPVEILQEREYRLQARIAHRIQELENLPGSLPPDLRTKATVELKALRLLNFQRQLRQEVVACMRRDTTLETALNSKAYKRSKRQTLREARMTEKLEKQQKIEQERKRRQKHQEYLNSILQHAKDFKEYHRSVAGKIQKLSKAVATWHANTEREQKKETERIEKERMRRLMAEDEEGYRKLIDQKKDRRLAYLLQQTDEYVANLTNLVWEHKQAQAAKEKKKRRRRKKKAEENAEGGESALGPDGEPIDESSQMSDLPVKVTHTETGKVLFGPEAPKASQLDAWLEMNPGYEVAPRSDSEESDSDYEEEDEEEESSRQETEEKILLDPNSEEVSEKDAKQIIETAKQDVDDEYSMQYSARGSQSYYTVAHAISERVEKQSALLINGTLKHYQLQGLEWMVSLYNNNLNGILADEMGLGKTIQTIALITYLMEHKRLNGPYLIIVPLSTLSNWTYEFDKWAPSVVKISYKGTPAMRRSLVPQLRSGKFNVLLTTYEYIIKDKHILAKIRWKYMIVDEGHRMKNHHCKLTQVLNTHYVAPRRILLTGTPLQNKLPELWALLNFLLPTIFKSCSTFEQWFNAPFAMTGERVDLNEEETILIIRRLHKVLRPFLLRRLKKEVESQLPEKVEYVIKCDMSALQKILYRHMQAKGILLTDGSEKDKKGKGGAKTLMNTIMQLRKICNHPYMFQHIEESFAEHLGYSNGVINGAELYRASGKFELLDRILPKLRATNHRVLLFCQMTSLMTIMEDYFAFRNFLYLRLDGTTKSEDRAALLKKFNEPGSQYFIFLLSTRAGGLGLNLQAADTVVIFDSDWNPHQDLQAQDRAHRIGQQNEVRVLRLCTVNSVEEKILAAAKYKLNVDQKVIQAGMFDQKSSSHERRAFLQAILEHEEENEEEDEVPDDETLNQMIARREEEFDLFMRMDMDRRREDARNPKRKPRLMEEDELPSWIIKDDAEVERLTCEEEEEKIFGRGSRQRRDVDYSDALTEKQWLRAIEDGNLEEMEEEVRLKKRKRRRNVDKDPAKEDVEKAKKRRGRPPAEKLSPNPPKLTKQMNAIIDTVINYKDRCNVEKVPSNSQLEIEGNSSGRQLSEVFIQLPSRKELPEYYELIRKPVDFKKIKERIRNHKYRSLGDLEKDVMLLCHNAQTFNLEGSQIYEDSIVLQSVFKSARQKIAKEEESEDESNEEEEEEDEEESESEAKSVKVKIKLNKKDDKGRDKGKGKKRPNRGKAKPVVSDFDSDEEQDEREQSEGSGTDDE
# [3] = Counterscreen for activators of the function of SWI/SNF related, matrix associated, actin dependent regulator of chromatin, subfamily a, member 2 (SMARCA2, BRM): Luminescence-based cell-based high throughput dose response assay to identify non-selective compounds using the VP16 reporter assay.; format: functional
# Protein Wnt-3a = Protein Wnt-3a (Mus musculus, UniProt P27467); experiment: Wnt3a-driven reporter signaling inhibition, dose response, selectivity assay for Gli-SUFU antagonist project, Wnt-LIGHT cells, luminescence (AID 651570); format: functional; conditions: read-out: IC50_Mean;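 further: Wnt-LIGHT reporter cells stimulated with conditioned medium from Wnt3a-producing cells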
# Sequence of Protein Wnt-3a (P27467 whole entry): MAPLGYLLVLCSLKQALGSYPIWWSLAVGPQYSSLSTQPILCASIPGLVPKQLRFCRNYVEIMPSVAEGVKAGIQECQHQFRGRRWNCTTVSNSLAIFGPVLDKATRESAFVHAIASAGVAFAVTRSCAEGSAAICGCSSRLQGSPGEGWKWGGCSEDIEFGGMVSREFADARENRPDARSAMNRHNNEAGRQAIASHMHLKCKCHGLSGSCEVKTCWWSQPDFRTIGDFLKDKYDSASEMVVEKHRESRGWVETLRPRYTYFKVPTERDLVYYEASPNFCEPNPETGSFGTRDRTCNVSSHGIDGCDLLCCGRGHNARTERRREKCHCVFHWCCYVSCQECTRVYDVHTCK
# Caspase-3 = biological target: T1, Caspase-3 (Homo sapiens, UniProt P42574); format: functional;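 further: Dose-response selectivity test against caspase-3 for candidate inhibitors of sentrin-specific proteases (SENPs)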
# T1 sequence (P42574 whole entry): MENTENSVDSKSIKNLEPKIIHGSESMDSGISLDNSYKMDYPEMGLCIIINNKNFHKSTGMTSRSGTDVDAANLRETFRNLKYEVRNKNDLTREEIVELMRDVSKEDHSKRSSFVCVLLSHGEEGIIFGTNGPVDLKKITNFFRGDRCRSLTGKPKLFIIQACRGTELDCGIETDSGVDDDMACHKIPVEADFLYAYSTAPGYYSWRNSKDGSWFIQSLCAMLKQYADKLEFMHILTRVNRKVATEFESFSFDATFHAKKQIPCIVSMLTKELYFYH
# [4] = biological target: T2, Sentrin-specific protease 7 (Homo sapiens, UniProt Q9BQF6); format: functional;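 further: Luminescence-based dose-response confirmation of ultra-high-throughput screening hits, measuring inhibition of SENP7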
# T2 sequence (Q9BQF6 whole entry): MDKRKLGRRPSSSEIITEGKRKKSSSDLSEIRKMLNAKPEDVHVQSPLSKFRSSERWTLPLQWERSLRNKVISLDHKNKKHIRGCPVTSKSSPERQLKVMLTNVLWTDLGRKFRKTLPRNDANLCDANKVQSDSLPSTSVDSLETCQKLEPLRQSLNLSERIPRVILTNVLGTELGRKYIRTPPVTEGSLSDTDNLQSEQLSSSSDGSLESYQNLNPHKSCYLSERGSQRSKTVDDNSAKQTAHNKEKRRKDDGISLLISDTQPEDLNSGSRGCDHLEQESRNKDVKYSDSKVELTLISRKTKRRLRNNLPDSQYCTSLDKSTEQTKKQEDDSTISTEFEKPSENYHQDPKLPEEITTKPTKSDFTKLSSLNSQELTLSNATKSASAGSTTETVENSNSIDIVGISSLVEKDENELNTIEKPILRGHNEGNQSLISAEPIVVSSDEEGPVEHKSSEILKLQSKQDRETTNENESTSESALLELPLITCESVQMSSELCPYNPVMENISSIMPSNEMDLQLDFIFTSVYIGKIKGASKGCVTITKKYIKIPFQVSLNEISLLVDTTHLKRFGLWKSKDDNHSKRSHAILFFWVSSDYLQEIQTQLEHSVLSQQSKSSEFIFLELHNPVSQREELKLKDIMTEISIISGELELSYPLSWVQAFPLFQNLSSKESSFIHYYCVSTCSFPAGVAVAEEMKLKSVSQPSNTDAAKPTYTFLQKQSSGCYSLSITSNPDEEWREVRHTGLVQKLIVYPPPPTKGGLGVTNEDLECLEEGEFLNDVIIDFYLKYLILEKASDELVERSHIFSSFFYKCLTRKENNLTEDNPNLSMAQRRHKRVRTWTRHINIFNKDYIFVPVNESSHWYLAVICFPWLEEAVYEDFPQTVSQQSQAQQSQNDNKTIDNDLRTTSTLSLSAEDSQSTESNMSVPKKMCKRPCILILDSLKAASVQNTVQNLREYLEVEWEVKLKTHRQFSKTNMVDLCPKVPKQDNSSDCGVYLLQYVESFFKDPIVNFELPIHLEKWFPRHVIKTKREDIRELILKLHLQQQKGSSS
# [5] = biological target: T3, Sentrin-specific protease 6 (Homo sapiens, UniProt Q9GZR1); format: functional;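 further: Luminescence-based dose-response confirmatory assay of SENP6 inhibition, following up an ultra-high-throughput screen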
# T3 sequence (Q9GZR1 whole entry): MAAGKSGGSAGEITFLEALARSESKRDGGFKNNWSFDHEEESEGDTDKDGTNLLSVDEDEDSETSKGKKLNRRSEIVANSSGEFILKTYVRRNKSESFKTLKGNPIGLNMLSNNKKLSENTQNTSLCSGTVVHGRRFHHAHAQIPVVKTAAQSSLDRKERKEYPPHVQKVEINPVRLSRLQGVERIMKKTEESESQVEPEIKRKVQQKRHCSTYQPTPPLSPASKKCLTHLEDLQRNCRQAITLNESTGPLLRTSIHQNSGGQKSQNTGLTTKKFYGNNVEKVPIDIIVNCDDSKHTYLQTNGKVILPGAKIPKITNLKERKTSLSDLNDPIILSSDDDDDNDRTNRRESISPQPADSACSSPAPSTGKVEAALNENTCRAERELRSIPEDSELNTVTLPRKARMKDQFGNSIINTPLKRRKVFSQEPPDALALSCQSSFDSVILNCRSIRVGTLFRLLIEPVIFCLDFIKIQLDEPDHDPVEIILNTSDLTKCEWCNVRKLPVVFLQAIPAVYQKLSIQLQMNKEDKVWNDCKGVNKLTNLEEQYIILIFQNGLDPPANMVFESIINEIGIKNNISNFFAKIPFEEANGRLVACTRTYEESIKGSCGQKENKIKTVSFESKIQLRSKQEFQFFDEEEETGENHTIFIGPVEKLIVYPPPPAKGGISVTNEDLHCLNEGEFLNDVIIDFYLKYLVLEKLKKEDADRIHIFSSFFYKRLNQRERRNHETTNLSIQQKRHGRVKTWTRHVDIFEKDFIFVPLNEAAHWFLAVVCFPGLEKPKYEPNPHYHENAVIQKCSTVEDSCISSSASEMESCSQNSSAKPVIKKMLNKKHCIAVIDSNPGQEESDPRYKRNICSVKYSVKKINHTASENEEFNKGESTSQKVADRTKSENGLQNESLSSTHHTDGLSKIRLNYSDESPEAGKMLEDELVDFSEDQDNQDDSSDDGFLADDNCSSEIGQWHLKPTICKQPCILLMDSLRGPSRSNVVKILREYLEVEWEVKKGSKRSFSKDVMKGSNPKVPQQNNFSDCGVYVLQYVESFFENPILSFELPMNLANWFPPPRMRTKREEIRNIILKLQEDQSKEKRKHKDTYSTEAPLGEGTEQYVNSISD
# [6] = biological target: T4, Sentrin-specific protease 8 (Homo sapiens, UniProt Q96LD8); format: functional;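 further: luminescence read-out of SENP8 inhibition, dose-response confirmation following an ultra-high-throughput screen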
# T4 sequence (Q96LD8 whole entry): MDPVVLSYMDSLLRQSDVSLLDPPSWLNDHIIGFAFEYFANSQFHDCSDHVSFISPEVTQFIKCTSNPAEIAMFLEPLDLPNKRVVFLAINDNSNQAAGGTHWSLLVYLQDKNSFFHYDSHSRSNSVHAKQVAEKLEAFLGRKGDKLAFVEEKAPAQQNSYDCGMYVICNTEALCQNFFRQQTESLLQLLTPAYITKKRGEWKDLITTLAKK
# Beta-galactosidase = Beta-galactosidase (Escherichia coli, UniProt Q8VNN2); experiment: Dose response counterscreen for EBI2 assay utilizing the enzyme, b-galactosidase.; format: functional
# Sequence of Beta-galactosidase (Q8VNN2 whole entry): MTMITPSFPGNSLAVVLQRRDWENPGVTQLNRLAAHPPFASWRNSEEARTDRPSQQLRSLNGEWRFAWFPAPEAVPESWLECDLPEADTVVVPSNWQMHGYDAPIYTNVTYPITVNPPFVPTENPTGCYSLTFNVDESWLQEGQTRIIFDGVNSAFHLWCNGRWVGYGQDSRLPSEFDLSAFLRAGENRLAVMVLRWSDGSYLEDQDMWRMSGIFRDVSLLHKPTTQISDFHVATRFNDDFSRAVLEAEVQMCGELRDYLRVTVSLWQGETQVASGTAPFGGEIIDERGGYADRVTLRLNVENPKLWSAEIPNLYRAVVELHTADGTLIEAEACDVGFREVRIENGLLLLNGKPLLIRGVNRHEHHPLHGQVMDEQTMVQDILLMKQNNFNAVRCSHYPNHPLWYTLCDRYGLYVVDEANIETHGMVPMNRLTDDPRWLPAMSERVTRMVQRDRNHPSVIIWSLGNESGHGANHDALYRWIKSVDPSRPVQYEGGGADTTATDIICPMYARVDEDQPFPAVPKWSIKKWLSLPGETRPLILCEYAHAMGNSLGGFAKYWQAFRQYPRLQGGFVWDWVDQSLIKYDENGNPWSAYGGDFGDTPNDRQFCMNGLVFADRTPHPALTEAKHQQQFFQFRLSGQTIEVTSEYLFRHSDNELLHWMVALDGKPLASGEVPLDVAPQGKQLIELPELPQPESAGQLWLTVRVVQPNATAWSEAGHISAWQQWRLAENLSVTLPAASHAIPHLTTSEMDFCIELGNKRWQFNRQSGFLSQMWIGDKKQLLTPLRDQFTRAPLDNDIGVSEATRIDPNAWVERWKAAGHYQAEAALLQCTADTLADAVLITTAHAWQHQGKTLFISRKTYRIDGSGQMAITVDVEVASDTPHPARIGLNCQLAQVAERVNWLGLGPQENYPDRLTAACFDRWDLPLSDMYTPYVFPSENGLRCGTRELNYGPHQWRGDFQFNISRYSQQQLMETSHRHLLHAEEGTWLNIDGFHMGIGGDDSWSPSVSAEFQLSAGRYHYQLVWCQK
# [7] = Shn3 3'UTR reporter inhibitors, dose response, cell-based, Clone20 osteoblasts, firefly luciferase, cherry-picked (AID 624132); format: functional;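 further: firefly luciferase luminescence from reporter carrying the Shn3 3'UTR in osteoblasts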
# [8] = HepG2 cell cytotoxicity, dose response, cytotoxicity control for Shn3 inhibitor project, CellTiter-Glo, cherry-picked (AID 624134); format: functional, cell-based
# [9] = control 3'UTR Renilla luciferase suppression, dose response, counter-screen for Shn3 inhibitor project, cell-based, Clone20-Shn3RL, cherry-picked (AID 624133); format: functional
# [10] = biological target: ADP-ribosylation factor GTPase-activating protein 1 (Rattus norvegicus, UniProt Q62848); experiment: Fluorescence polarization-based biochemical high throughput dose response screening assay to identify inhibitors of ADP-ribosylation factor GTPase activating protein 1 (ARFGAP1).; format: functional
# [11] = cytotoxicity in HPDE-C7 cells, cell-based, fluorescence, HTS (AID 430); format: functional; conditions: Homo sapiens
# [12] = cytotoxicity in KRAS-transformed pancreatic duct cells, primary screen, cell-based, fluorescence, HTS (AID 431); format: functional; conditions: Homo sapiens;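 further: cell line used: HPDE-C7K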
compound,measurement,setting,value
CO/N=C(/CNC(=O)c1ccc(Cl)cc1Cl)c1ccc(Cl)cc1,AC50,Cytochrome P450 2D6,2 µM (inconclusive)
same,AC50,Cytochrome P450 3A4,inconclusive
CSCCC(c1nnnn1C1CCCC1)N1CCC(n2c(O)nc3ccccc32)CC1 (configuration not stated),IC50,[1],26.1 µM (inactive)
N[C@@H](CSCSC[C@H](N)C(=O)O)C(=O)O,GI50,P388/ADR,> 225 µM (inactive)
same,GI50,SN12K1,> 225 µM (inactive)
same,GI50,P388,> 71.1 µM (inactive)
CC(=O)NCCc1ccc(C(=O)COC(=O)c2cccs2)cc1,EC50,[2],> 91.1 µM (inactive)
same,EC50,[3],> 91.1 µM (inactive)
Cc1ccc(NC(=O)COc2ccccc2C(N)=O)cc1S(=O)(=O)N1CCCCCC1,IC50,Protein Wnt-3a,9.3 µM (active)
C[N+](=N[N-]c1cccc([N+](=O)[O-])c1)c1ccccc1,IC50,Caspase-3,29.7 µM (active)
same,IC50,[4],6.72 µM (active)
same,IC50,[5],33.7 µM (active)
same,IC50,[6],36 µM (active)
CSCC(CO)NC(=O)/C=C/c1c(C)[nH]c(=O)[nH]c1=O (configuration not stated),GI50,P388/ADR,> 875 µM (inactive)
same,GI50,SN12K1,518 µM (inactive)
same,GI50,P388,818 µM (inactive)
CN(C)S(=O)(=O)N1CCN(CC(O)COc2ccc3cc(Br)ccc3c2)CC1 (configuration not stated),IC50,Beta-galactosidase,> 80 µM (inactive)
C=C1C(=O)[C@]23C[C@H]1CCC2[C@]1(C)C(=O)CC[C@@](C)(C(=O)O)C1C[C@@H]3O (some centres not stated),EC50,[2],> 91.2 µM (inactive)
same,EC50,[3],> 91.2 µM (inactive)
CN(Cc1ccc(OCC(O)CN2CCCCC2)cc1)Cc1ccnc2ccccc12 (configuration not stated),AC50,[7],1.21 µM (active)
same,AC50,[8],4.07 µM (active)
same,AC50,[9],1.37 µM (active)
same,IC50,Protein Wnt-3a,3.4 µM (active)
COC(=O)c1ccc(Nc2nc(-c3ccncc3)nc3ccccc23)cc1,IC50,[10],98.4 µM (inactive)
Cc1nnc(SCc2nc3ccccc3[nH]2)s1,EC50,[11],> 20 µM (not active)
same,EC50,[12],> 20 µM (not active)
same,IC50,[1],15.2 µM (inactive)
